Results taken from patent publication US10251889B2, “Substituted pyrazolo[1,5-a]pyrimidine compounds as Trk kinase inhibitors” (Array BioPharma, Inc., priority 2009, dated 2019).
Structures can show the parent of a compound that is named as a salt.

target: Jak2 (human Jak2 kinase domain, amino acids 808-1132) (Homo sapiens (Human), UniProt O60674); assay: Jak2 inhibition assay (Omnia kinase assay); format: biochemical; settings: read-out: Jak2 Enzyme (% inhibition at 1000 nM)
Description: The assays described in Examples C, D, E and F for the determination of JAK1, JAK2, JAK3 and Tyk2 kinase activity, respectively, utilized the Omnia® Kinase fluorescence peptide substrate-based technology (Invitrogen). […] The reactions were therefore read at excitation 360 nm and emission was measured at 485 nm every 50 seconds for 45 minutes using a PerkinElmer EnVision Multilabel Plate Reader.
The final buffer conditions for each of the JAK1, JAK2, JAK3 and Tyk2 assays were as follows: 25 mM HEPES, pH 7.4, 10 mM MgCl2, 0.01% Triton X-100 and 1 mM DTT.
Two-μL aliquots of these were transferred to a fresh plate for a ten-fold intermediate dilution with assay buffer. Five-μL aliquots of the diluted compounds were then transferred to 20-μL of assay mixtures described in Examples C, D, E and F for a final concentration of DMSO of 2%. […] For each plate, percent of control (POC) values were calculated for each well according to the following equation:
where Xmax=Average Uninhibited Controls • Xmin=Average Background IC50's were estimated from the POC's using a standard 4-parameter logistic model:
where A=Minimum Y (Bottom Asymptote) • B=Maximum Y (Top Asymptote) • C=EC50 • D=Slope Factor • X=Compound Concentration (nM) • Y=POC
The IC50 is defined as the concentration of inhibitor at which the POC equals 50 for the fitted curve.
Compounds of Formula I were screened for their ability to inhibit Jak2 using the general enzyme inhibition assay method, in which the assay mixture contained 500 μM ATP, 10 μM Omnia® Y7 peptide (Catalog # IVGN KNZ3071C, Invitrogen Corporation, Carlsbad, Calif.) and 4 nM Jak2 in a total volume of 20 μL. Human Jak2 kinase domain comprising amino acids 808-1132 was purchased from Invitrogen Corporation, Carlsbad, Calif. (catalog # IVGN PV4210).

Jak2 (human Jak2 kinase domain, amino acids 808-1132), sequence (O60674 808-1132): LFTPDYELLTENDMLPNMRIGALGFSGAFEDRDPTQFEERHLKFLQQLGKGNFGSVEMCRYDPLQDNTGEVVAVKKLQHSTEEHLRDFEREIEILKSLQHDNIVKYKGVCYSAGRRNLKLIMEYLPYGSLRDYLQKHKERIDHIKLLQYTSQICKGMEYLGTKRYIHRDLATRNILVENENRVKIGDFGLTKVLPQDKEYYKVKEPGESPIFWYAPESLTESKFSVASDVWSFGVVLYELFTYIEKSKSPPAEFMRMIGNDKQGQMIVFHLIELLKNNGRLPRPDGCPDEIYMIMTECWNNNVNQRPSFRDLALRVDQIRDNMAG

`O=C(N[C@@H]1CCNC[C@@H]1F)c1cnn2ccc(N3CCC[C@@H]3c3cc(F)ccc3F)nc12` [Example 61, 5-((R)-2-(2,5-difluorophenyl)pyrrolidin-1-yl)-N-((3S,4R)-3-fluoropiperidin-4-yl)pyrazolo[1,5-a]pyrimidine-3-carboxamide Hydrochloride] showed an inhibition at 1 µM of 54.4%.

same assay, conditions: read-out: Jak2 Enzyme (% inhibition at 1000 nM), Table 1; 1000 nM test compound

In order of rising inhibition at 1 µM:
1. CN(C)C(=O)c1cnn2ccc(N3CCC[C@@H]3c3cc(F)ccc3F)nc12 [Example 27, (R)-5-(2-(2,5-difluorophenyl)pyrrolidin-1-yl)-N,N-dimethylpyrazolo[1,5-a]pyrimidine-3-carboxamide]  1.3%
2. CNC(=O)c1cnn2ccc(N3C[C@H](O)C[C@@H]3c3cccc(F)c3)nc12 [Example 43, 5-((2R,4R)-2-(3-fluorophenyl)-4-hydroxypyrrolidin-1-yl)-N-methylpyrazolo[1,5-a]pyrimidine-3-carboxamide]  4.2%
3. CC(C)(N)CNC(=O)c1cnn2ccc(N3CCC[C@@H]3c3cc(F)ccc3F)nc12 [Example 58, (R)—N-(2-amino-2-methylpropyl)-5-(2-(2,5-difluorophenyl)pyrrolidin-1-yl)pyrazolo[1,5-a]pyrimidine-3-carboxamide]  4.7%
4. O=C(NCCn1ccnc1)c1cnn2ccc(N3CCC[C@@H]3c3cc(F)ccc3F)nc12 [Example 28, (R)—N-(2-(1H-imidazol-1-yl)ethyl)-5-(2-(2,5-difluorophenyl)pyrrolidin-1-yl)pyrazolo[1,5-a]pyrimidine-3-carboxamide]  5%
5. CC(C)(C)NC(=O)c1cnn2ccc(N3C[C@H](O)C[C@@H]3c3cccc(F)c3)nc12 [Example 42, N-tert-butyl-5-((2R,4R)-2-(3-fluorophenyl)-4-hydroxypyrrolidin-1-yl)pyrazolo[1,5-a]pyrimidine-3-carboxamide]  7.7%
6. CC1(O)CN(C(=O)c2cnn3ccc(N4CCC[C@@H]4c4cc(F)ccc4F)nc23)C1 [Example 32, (R)-(5-(2-(2,5-difluorophenyl)pyrrolidin-1-yl)pyrazolo[1,5-a]pyrimidin-3-yl)(3-hydroxy-3-methylazetidin-1-yl)methanone]  8.6%
7. CC(C)(C)NC(=O)c1cnn2ccc(N3CCC[C@@H]3c3cncc(F)c3)nc12 [Example 53, (R)—N-tert-butyl-5-(2-(5-fluoropyridin-3-yl)pyrrolidin-1-yl)pyrazolo[1,5-a]pyrimidine-3-carboxamide]  8.7%
8. O=C(NC[C@@H](O)CO)c1cnn2ccc(N3CCC[C@@H]3c3cc(F)ccc3F)nc12 [Example 26, 5-((R)-2-(2,5-difluorophenyl)pyrrolidin-1-yl)-N—((R)-2,3-dihydroxypropyl)pyrazolo[1,5-a]pyrimidine-3-carboxamide]  9.9%
9. O=C(NC[C@H](O)CO)c1cnn2ccc(N3CCC[C@@H]3c3cc(F)ccc3F)nc12 [Example 29, 5-((R)-2-(2,5-difluorophenyl)pyrrolidin-1-yl)-N—((S)-2,3-dihydroxypropyl)pyrazolo[1,5-a]pyrimidine-3-carboxamide]  13.2%
10. CS(=O)(=O)NCCNC(=O)c1cnn2ccc(N3CCC[C@@H]3c3cc(F)ccc3F)nc12 [Example 46, (R)-5-(2-(2,5-difluorophenyl)pyrrolidin-1-yl)-N-(2-(methylsulfonamido)ethyl)pyrazolo[1,5-a]pyrimidine-3-carboxamide]  13.8%
11. COc1ccc(F)cc1[C@H]1CCCN1c1ccn2ncc(C(=O)NCC(C)(C)O)c2n1 [Example 49, (R)-5-(2-(5-fluoro-2-methoxyphenyl)pyrrolidin-1-yl)-N-(2-hydroxy-2-methylpropyl)pyrazolo[1,5-a]pyrimidine-3-carboxamide]  17.2%
12. CC(C)(C#N)NC(=O)c1cnn2ccc(N3CCC[C@@H]3c3cc(F)ccc3F)nc12 [Example 38, (R)—N-(2-cyanopropan-2-yl)-5-(2-(2,5-difluorophenyl)pyrrolidin-1-yl)pyrazolo[1,5-a]pyrimidine-3-carboxamide]  18.2%
13. O=C(NCCc1c[nH]cn1)c1cnn2ccc(N3CCC[C@@H]3c3cc(F)ccc3F)nc12 [Example 25, (R)—N-(2-(1H-imidazol-4-yl)ethyl)-5-(2-(2,5-difluorophenyl)pyrrolidin-1-yl)pyrazole [1,5-a]pyrimidine-3-carboxamide]  19.4%
14. CC(C)(C)NC(=O)c1cnn2ccc(N3CCC[C@@H]3c3cccc(F)c3)nc12 [Example 36, (R)—N-tert-butyl-5-(2-(3-fluorophenyl)pyrrolidin-1-yl)pyrazolo[1,5-a]pyrimidine-3-carboxamide]  22.2%
15. COc1ccc(F)cc1[C@H]1CCCN1c1ccn2ncc(C(=O)NCCN3CCOCC3)c2n1 [Example 54, (R)-5-(2-(5-fluoro-2-methoxyphenyl)pyrrolidin-1-yl)-N-(2-morpholinoethyl)pyrazolo[1,5-a]pyrimidine-3-carboxamide]  23%
16. COc1ccc(F)cc1[C@H]1CCCN1c1ccn2ncc(C(=O)NC[C@H](O)CO)c2n1 [Example 55, N—((S)-2,3-dihydroxypropyl)-5-((R)-2-(5-fluoro-2-methoxyphenyl)pyrrolidin-1-yl)pyrazolo[1,5-a]pyrimidine-3-carboxamide]  24.1%
17. O=C(NC1CC1)c1cnn2ccc(N3CCC[C@@H]3c3cccc(F)c3)nc12 [Example 37, (R)—N-cyclopropyl-5-(2-(3-fluorophenyl)pyrrolidin-1-yl)pyrazolo[1,5-a]pyrimidine-3-carboxamide]  25%
18. COc1ccc(F)cc1[C@H]1CCCN1c1ccn2ncc(C(=O)NC[C@@H](O)CO)c2n1 [Example 56, N—((R)-2,3-dihydroxypropyl)-5-((R)-2-(5-fluoro-2-methoxyphenyl)pyrrolidin-1-yl)pyrazolo[1,5-a]pyrimidine-3-carboxamide]  28%
19. N#CCNC(=O)c1cnn2ccc(N3CCC[C@@H]3c3cc(F)ccc3F)nc12 [Example 39, (R)—N-(cyanomethyl)-5-(2-(2,5-difluorophenyl)pyrrolidin-1-yl)pyrazolo[1,5-a]pyrimidine-3-carboxamide]  30.4%
20. O=C(NC[C@H](O)CO)c1cnn2ccc(N3CCC[C@@H]3c3cc(F)ccc3C(F)(F)F)nc12 [Example 62, N—((S)-2,3-dihydroxypropyl)-5-((R)-2-(5-fluoro-2-(trifluoromethyl)phenyl)pyrrolidin-1-yl)pyrazolo[1,5-a]pyrimidine-3-carboxamide]  35.2%
21. NS(=O)(=O)CCNC(=O)c1cnn2ccc(N3CCC[C@@H]3c3cc(F)ccc3F)nc12 [Example 47, (R)-5-(2-(2,5-difluorophenyl)pyrrolidin-1-yl)-N-(2-sulfamoylethyl)pyrazolo[1,5-a]pyrimidine-3-carboxamide]  37.3%
22. CC(C)(CF)NC(=O)c1cnn2ccc(N3CCC[C@@H]3c3cc(F)ccc3F)nc12 [Example 40, (R)-5-(2-(2,5-difluorophenyl)pyrrolidin-1-yl)-N-(1-fluoro-2-methylpropan-2-yl)pyrazolo[1,5-a]pyrimidine-3-carboxamide]  41.4%
23. CS(=O)(=O)N1CCC(NC(=O)c2cnn3ccc(N4CCC[C@@H]4c4cc(F)ccc4F)nc23)CC1 [Example 44, (R)-5-(2-(2,5-difluorophenyl)pyrrolidin-1-yl)-N-(1-(methylsulfonyl)piperidin-4-yl)pyrazolo[1,5-a]pyrimidine-3-carboxamide]  71.5%
24. COc1ccc(F)cc1[C@H]1CCCN1c1ccn2ncc(C(=O)NC3CC3)c2n1 [Example 48, (R)—N-cyclopropyl-5-(2-(5-fluoro-2-methoxyphenyl)pyrrolidin-1-yl)pyrazolo[1,5-a]pyrimidine-3-carboxamide]  72.7%
25. O=C(N[C@H]1CC[C@H](O)CC1)c1cnn2ccc(N3CCC[C@@H]3c3cccc(F)c3)nc12 [Example 35, 5-((R)-2-(3-fluorophenyl)pyrrolidin-1-yl)-N-((trans)-4-hydroxycyclohexyl)pyrazolo[1,5-a]pyrimidine-3-carboxamide]  77.4%
26. NS(=O)(=O)N1CCC(NC(=O)c2cnn3ccc(N4CCC[C@@H]4c4cc(F)ccc4F)nc23)CC1 [Example 45, (R)-5-(2-(2,5-difluorophenyl)pyrrolidin-1-yl)-N-(1-sulfamoylpiperidin-4-yl)pyrazolo[1,5-a]pyrimidine-3-carboxamide]  84%
27. COc1ccc(F)cc1[C@H]1CCCN1c1ccn2ncc(C(=O)N[C@H]3CC[C@H](O)CC3)c2n1 [Example 34, 5-((R)-2-(5-fluoro-2-methoxyphenyl)pyrrolidin-1-yl)-N-((trans)-4-hydroxycyclohexyl)pyrazolo[1,5-a]pyrimidine-3-carboxamide]  96.9%
28. O=C(N[C@H]1CC[C@H](C(=O)O)CC1)c1cnn2ccc(N3CCC[C@@H]3c3cc(F)ccc3F)nc12 [Example 33, Trans-4-(5-((R)-2-(2,5-difluorophenyl)pyrrolidin-1-yl)pyrazolo[1,5-a]pyrimidine-3-carboxamido)cyclohexanecarboxylic Acid]  99.9%
